Test results: ChEMBL document CHEMBL5214948, “Boronic Acid: A Novel Pharmacophore Targeting Src Homology 2 (SH2) Domain of STAT3” (J Med Chem, 2022)
Active and inactive are the calls of the source. The rule behind the calls is not given here.

Columns and labels:
MGC-803 [1] = test: Antitumor activity against human MGC-803 cells xenografted in BALB/c nude mouse assessed as tumor growth inhibition at 15 mg/kg, ip measured every day for 20 days; assay type: functional; design: scale not given: the % may be the effect or the level left; conditions: time 20 day
MGC-803 [2] = test: Antiproliferative activity against human MGC-803 cells assessed as reduction in cell viability measured after 72 hrs by CCK-8 assay; assay type: functional, cell-based; conditions: MGC-803, 72 h
AGS [3] = test: Antiproliferative activity against human AGS cells assessed as reduction in cell viability incubated for 72 hrs by CCK-8 assay; assay type: functional, cell-based
MGC-803 [4] = test: Induction of apoptosis in human MGC-803 cells at 5 uM incubated for 72 hrs by V-FITC/PI staining based flow cytometry assay; assay type: functional
[5] = biological target: T1, Signal transducer and activator of transcription 3 (Homo sapiens, UniProt P40763); test: Inhibition of STAT3 transcriptional activity transfected in HEK293T cells at 3 to 5 uM incubated for 24 hrs by dual-ludferase reporter gene assay; assay type: cell-based; conditions: dose 3-5 µM
T1 sequence (P40763 whole entry): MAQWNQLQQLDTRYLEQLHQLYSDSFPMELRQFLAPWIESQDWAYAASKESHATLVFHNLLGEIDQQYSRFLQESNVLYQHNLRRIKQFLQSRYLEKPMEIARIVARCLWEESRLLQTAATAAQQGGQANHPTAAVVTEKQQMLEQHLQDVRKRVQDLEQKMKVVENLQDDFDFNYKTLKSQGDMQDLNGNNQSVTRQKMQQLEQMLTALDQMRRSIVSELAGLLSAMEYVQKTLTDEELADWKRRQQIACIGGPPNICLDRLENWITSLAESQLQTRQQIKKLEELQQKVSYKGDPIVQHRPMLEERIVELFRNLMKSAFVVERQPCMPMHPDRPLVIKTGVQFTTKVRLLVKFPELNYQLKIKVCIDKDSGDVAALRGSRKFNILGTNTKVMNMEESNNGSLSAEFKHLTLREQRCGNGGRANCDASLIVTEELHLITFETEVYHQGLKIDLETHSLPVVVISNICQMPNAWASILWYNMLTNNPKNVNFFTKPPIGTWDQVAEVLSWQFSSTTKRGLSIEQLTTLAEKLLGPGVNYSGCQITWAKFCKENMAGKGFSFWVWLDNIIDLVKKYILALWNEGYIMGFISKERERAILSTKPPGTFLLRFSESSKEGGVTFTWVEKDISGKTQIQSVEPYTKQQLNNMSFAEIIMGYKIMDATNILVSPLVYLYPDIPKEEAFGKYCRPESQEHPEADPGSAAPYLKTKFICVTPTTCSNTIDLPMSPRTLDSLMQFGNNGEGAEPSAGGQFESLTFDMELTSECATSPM

[6] = Antiproliferative activity against […] H9c2 cells assessed as reduction in cell viability incubated for 72 hrs by CCK-8 assay; assay type: toxicity, cell-based; conditions: rat
[7] = Toxicity in BALB/c nude mouse xenografted with MGC-803 cells assessed as effect on body weight at 5 mg/kg, ip measured every day for 20 days; assay type: organism-based; conditions: in vivo, 480 h, time 20 day
[8] = biological target: T1, Signal transducer and activator of transcription 3; test: Binding affinity to full length wild type STAT3-SH2 domain (unknown origin) in human MGC-803 cells assessed as thermal stabilization of protein at 37 to 53 degreeC at 5 uM incubated for 3 hrs by cellular thermal shift assay; assay type: cell-based
[9] = Toxicity in BALB/c nude mouse xenografted with MGC-803 cells assessed as effect on body weight at 15 mg/kg, ip measured every day for 20 days; assay type: organism-based; conditions: in vivo, 480 h, time 20 day
MGC-803 [10] = test: Antiproliferative activity against human MGC-803 cells assessed as reduction in cell viability pretreated for 12 hrs followed by compound washout and measured after 24 hrs; assay type: functional, cell-based
[11] = biological target: T1, Signal transducer and activator of transcription 3; test: Binding affinity to full length wild type STAT3-SH2 domain (unknown origin) assessed as association constant by SPR analysis
AGS [12] = test: Induction of apoptosis in human AGS cells at 3 uM incubated for 72 hrs by V-FITC/PI staining based flow cytometry assay; assay type: functional

- IC50 (MGC-803 [2]): 8.51 µM
- IC50 (AGS [3]): 5.42 µM
- inhibition [5]: Active
- Activity [8]: Active
- Ka [11]: 3.02 10^3/M/s
Compound: CN(CC(=O)N(Cc1ccc(C2CCCCC2)cc1)c1ccc(C(=O)O)cc1)S(=O)(=O)c1c(F)c(F)c(F)c(F)c1F
- Activity (MGC-803 [1]): 49.05%
- Activity (MGC-803 [4]): 5.7%
- IC50 at 72 h [6]: 10.2 µM
- Activity [7]: Non-Toxic
- Activity [9]: Non-Toxic
- Activity (MGC-803 [10]): Active
- Activity (AGS [12]): 16.2%
